According to patent US20230406838A1, “MUTANT SELECTIVE EGFR INHIBITORS AND METHODS OF USE THEREOF” (Dana-Farber Cancer Institute, Inc., priority 2020, published 2023):

Legend:
EGFR L858R/T790M = EGFR L858R/T790M (Homo sapiens, UniProt P00533, L858R/T790M); assay: HTRF-based EGFR biochemical assay, L858R/T790M; conditions: 100 μM ATP, enzyme 0.02 nM
Protocol: (§1) EGFR biochemical activity measurements were carried out using the homogeneous time-resolved fluorescence (HTRF) assay (Cisbio). Inhibitors and DMSO normalizations were first dispensed to empty black low-volume 384-well plates (Corning) with D300 digital liquid dispenser (HP). All reactions were carried out at room temperature and solutions were added to plates with a Multidrop Combi Reagent Dispenser (ThermoFisher). The reaction mixture (10 μL final volume) contained 1 μM tyrosine kinase peptide-biotin substrate and mutant EGFR in a reaction buffer (50 mM HEPES pH 7.0, 5 mM MgCl2, 1 mM MnCl2, 0.01% BSA, 2 mM TCEP, 0.1 mM NaVO4). […] Enzyme reaction solution (2× concentrations, 5 μL) was added to 384-well plates containing compounds and incubated for 30 mins. Enzyme reactions were initiated with the addition of 5 μL of ATP to a final concentration of 100 μM and reacted for 20 mins.

EGFR L858R = EGFR L858R (Homo sapiens, UniProt P00533, L858R); assay: HTRF-based EGFR biochemical assay, L858R; conditions: 100 μM ATP, enzyme 0.1 nM
EGFR L858R, sequence (P00533 25-1210 L858R): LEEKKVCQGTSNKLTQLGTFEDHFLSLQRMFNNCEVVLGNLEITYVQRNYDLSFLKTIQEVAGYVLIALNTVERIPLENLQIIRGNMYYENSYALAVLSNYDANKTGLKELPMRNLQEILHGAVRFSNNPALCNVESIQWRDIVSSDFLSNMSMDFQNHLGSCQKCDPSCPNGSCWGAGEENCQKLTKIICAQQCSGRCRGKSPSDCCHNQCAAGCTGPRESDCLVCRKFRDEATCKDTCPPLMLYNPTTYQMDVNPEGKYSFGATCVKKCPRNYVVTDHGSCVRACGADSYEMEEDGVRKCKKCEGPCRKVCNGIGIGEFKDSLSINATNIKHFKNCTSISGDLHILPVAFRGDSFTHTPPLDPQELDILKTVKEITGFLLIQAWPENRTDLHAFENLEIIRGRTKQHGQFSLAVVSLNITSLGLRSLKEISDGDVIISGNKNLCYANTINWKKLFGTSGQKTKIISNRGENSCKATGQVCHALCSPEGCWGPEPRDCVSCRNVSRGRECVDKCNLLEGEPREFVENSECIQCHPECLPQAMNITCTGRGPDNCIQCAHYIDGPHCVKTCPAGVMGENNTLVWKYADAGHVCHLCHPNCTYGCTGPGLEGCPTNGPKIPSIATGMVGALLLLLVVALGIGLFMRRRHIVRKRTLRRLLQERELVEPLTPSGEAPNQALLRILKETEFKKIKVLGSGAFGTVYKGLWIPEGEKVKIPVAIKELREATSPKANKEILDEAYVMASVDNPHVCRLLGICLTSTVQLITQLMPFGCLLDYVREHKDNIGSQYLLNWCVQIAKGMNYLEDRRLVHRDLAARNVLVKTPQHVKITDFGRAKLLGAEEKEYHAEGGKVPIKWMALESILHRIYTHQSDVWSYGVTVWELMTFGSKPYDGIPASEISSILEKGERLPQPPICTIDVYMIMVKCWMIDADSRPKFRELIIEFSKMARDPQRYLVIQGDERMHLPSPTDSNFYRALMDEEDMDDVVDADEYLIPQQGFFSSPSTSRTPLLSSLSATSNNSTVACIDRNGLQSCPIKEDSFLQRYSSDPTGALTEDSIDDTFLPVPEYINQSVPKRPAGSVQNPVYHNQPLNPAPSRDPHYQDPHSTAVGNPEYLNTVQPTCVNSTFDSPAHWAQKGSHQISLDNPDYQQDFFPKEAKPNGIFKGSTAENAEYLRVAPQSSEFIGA
Protocol: as §1

EGFR WT = EGFR WT (Homo sapiens, UniProt P00533); assay: HTRF-based EGFR biochemical assay, WT; conditions: 100 μM ATP, enzyme 5 nM
EGFR WT, sequence (P00533 25-1210): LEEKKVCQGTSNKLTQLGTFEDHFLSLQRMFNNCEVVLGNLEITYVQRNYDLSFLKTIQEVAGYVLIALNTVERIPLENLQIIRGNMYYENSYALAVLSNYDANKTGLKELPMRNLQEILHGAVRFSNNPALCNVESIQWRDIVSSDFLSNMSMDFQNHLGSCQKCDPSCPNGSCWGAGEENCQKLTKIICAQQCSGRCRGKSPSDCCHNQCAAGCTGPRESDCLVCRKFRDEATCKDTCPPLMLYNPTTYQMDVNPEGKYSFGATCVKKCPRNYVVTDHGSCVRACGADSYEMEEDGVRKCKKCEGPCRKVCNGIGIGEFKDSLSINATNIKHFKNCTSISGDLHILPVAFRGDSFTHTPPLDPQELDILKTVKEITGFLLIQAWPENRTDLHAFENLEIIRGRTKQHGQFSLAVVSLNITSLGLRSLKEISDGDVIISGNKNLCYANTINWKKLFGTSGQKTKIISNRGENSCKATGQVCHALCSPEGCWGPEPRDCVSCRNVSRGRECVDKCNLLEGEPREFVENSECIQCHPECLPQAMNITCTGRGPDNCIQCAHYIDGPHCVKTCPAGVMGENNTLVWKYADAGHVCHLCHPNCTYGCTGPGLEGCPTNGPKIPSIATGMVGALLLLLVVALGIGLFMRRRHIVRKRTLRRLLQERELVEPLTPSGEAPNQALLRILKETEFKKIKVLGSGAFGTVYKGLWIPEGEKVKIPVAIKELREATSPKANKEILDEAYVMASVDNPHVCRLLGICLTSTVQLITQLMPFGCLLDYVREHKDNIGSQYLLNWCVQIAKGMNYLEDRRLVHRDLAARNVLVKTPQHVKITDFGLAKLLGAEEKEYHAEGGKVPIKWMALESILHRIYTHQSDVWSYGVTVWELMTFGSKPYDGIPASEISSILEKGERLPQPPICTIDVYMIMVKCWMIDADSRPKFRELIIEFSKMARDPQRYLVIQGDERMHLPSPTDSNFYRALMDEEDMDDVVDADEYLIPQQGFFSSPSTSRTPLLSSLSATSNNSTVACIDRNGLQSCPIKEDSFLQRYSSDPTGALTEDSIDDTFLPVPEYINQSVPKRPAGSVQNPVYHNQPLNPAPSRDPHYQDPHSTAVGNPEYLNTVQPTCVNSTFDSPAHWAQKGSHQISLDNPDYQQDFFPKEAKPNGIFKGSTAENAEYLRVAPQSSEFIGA

EGFR L858R/T790M/C797S = EGFR L858R/T790M/C797S (Homo sapiens, UniProt P00533, C797S/L858R/T790M); assay: HTRF-based EGFR biochemical assay, L858R/T790M/C797S; conditions: 100 μM ATP, enzyme 0.02 nM
EGFR L858R/T790M/C797S, sequence (P00533 25-1210 T790M/C797S/L858R): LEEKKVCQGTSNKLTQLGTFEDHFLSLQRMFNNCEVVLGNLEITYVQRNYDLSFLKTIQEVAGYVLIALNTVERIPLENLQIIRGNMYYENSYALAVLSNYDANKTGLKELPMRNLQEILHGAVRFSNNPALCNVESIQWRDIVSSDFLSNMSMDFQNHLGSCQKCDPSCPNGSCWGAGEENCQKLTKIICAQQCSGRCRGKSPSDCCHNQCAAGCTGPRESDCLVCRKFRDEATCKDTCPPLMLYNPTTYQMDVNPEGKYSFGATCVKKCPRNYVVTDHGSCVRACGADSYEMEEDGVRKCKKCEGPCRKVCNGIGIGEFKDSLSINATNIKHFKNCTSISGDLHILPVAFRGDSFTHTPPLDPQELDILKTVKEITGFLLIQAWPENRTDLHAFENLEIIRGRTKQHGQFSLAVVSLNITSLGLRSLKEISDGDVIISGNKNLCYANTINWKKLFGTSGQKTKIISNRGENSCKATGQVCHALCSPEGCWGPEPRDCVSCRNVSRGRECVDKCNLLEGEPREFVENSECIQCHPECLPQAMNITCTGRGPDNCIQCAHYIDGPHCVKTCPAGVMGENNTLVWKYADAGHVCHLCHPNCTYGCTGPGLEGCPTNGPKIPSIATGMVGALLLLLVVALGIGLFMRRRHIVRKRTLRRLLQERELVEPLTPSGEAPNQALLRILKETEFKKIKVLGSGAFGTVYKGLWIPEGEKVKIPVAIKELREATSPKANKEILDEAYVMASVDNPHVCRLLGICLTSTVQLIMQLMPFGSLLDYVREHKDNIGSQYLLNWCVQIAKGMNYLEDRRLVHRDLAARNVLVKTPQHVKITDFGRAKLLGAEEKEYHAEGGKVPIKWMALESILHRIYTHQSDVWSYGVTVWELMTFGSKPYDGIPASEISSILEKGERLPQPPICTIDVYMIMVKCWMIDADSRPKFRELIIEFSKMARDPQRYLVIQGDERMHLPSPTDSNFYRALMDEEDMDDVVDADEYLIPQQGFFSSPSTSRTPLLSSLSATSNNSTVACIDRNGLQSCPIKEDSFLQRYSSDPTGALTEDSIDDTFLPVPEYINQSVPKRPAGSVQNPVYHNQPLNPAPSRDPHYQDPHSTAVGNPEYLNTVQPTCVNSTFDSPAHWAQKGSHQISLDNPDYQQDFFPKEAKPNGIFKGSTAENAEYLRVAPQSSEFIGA
Protocol: as §1

EGFR L858R/T790M, sequence (P00533 25-1210 T790M/L858R): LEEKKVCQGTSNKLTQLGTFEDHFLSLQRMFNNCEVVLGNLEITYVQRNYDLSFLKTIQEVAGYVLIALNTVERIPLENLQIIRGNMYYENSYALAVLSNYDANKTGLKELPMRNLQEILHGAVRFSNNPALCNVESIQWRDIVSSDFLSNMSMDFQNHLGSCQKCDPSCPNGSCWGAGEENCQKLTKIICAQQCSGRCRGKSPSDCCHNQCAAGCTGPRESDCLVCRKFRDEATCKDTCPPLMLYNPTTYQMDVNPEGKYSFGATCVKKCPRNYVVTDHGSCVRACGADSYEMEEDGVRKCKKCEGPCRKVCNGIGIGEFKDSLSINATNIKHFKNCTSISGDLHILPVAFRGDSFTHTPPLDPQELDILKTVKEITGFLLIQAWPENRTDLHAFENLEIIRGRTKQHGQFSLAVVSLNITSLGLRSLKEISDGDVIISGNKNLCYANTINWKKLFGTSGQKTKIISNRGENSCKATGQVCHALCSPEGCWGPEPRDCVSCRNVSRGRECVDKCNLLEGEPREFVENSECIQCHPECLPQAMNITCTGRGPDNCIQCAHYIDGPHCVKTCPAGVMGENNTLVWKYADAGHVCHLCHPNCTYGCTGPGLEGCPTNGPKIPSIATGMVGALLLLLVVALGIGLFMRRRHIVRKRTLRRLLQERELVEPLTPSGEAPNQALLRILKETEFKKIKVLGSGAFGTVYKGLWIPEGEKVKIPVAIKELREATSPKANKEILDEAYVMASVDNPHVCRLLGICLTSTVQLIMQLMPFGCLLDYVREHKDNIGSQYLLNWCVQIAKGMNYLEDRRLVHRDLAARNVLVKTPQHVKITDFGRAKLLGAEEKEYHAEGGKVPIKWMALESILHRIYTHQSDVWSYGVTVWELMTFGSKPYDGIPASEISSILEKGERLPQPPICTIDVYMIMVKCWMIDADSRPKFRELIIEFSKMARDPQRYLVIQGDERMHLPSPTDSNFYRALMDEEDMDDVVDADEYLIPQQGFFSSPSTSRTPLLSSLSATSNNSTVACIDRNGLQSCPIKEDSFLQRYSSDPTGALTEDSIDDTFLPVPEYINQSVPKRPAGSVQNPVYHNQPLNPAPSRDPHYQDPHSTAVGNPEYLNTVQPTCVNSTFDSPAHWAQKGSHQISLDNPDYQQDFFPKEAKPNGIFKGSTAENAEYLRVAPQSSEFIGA

Compound | IC50 (EGFR L858R/T790M) [µM] | IC50 (EGFR L858R) [µM] | IC50 (EGFR WT) [µM] | IC50 (EGFR L858R/T790M/C797S) [µM]
CSc1nc(-c2cccc(NC(=O)C3CCCC3)c2)c(-c2ccnc(NC(C)=O)c2)[nH]1 [Compound 001, N-(3-(5-(2-acetamidopyridin-4-yl)-2-(methylthio)-1H-imidazol-4-yl)phenyl)cyclopentane-carboxamide] | 16.7 | 4.2 | – | –
CSc1nc(-c2cccc(NC(=O)C3CC3)c2)c(-c2ccnc(NC(C)=O)c2)[nH]1 [Compound 003, N-(3-(5-(2-acetamidopyridin-4-yl)-2-(methylthio)-1H-imidazol-4-yl)phenyl)cyclopropane-carboxamide] | 14.5 | 4.23 | – | –
CSc1nc(-c2cccc(NC(=O)Nc3ccccc3)c2)c(-c2ccnc(NC(C)=O)c2)[nH]1 [Compound 005, N-(4-(2-(methylthio)-4-(3-(3-phenylureido)phenyl)-1H-imidazol-5-yl)pyridin-2-yl)acetamide] | 3.71 | 3.6 | – | –
CSc1nc(-c2cccc(NC(=O)c3c(F)cccc3F)c2)c(-c2ccnc(Nc3ccccc3)c2)[nH]1 [Compound 010, 2,6-difluoro-N-(3-(2-(methylthio)-5-(2-(phenylamino)pyridin-4-yl)-1H-imidazol-4-yl)phenyl)benzamide] | 2.38 | 0.032 | 0.015 | –
CSc1nc(-c2cc(NC(=O)c3c(F)cccc3F)cs2)c(-c2ccnc(NC(C)=O)c2)[nH]1 [Compound 011, N-(5-(5-(2-acetamidopyridin-4-yl)-2-(methylthio)-1H-imidazol-4-yl)thiophen-3-yl)-2,6-difluorobenzamide] | > 100 | > 100 | – | –
CSc1nc(-c2cc(NC(=O)Cc3ccccc3)cs2)c(-c2ccnc(NC(C)=O)c2)[nH]1 [Compound 012, N-(5-(5-(2-acetamidopyridin-4-yl)-2-(methylthio)-1H-imidazol-4-yl)thiophen-3-yl)-2-phenylacetamide] | > 100 | > 100 | – | –
CSc1nc(-c2cccc(NC(=O)Nc3ccc(Br)cc3)c2)c(-c2ccnc(NC(C)=O)c2)[nH]1 [Compound 015, N-(4-(4-(3-(3-(4-bromophenyl)ureido)phenyl)-2-(methylthio)-1H-imidazol-5-yl)pyridin-2-yl)acetamide] | 5.94 | 6.43 | – | –
CSc1nc(-c2cccc(NC(=O)Nc3cccc(C(F)(F)F)c3)c2)c(-c2ccnc(NC(C)=O)c2)[nH]1 [Compound 016, N-(4(2-(methylthio)-4-(3-(3-(3-(trifluoromethyl)phenyl)ureido)phenyl)-1H-imidazol-5-yl)pyridin-2-yl)acetamide] | 0.857 | 0.512 | – | –
CSc1nc(-c2cccc(NC(=O)Nc3ccc(F)cc3)c2)c(-c2ccnc(NC(C)=O)c2)[nH]1 [Compound 017, N-(4-(4-(3-(3-(4-fluorophenyl)ureido)phenyl)-2-(methylthio)-1H-imidazol-5-yl)pyridin-2-yl)acetamide] | 5.3 | 4.13 | – | –
CSc1nc(-c2cccc(NC(=O)Nc3ccc(F)c(Cl)c3)c2)c(-c2ccnc(NC(C)=O)c2)[nH]1 [Compound 018] | 2.2 | 1.6 | – | –
CSc1nc(-c2ccccc2NC(=O)Nc2ccc(Br)cc2)c(-c2ccnc(NC(C)=O)c2)[nH]1 [Compound 019, N-(4-(4-(2(3-(4-bromophenyl)ureido)phenyl)-2-(methylthio)-1H-imidazol-5-yl)pyridin-2-yl)acetamide] | > 100 | > 100 | – | –
CSc1nc(-c2cccc(NC(=O)Nc3ccccc3)c2)c(-c2ccnc(NC(C)=O)c2)[nH]1 [Compound 020, N-(4-(2-(methylthio)-4-(3-(3-phenylureido)phenyl)-1H-imidazol-5-yl)pyridin-2-yl)acetamide] | > 100 | > 100 | – | –
CSc1nc(-c2ccccc2NC(=O)C2CCCC2)c(-c2ccnc(NC(C)=O)c2)[nH]1 [Compound 022, N-(2(5-(2-acetamidopyridin-4-yl)-2-(methylthio)-1H-imidazol-4-yl)phenyl)cyclopentane-carboxamide] | > 100 | > 100 | – | –
CSc1nc(-c2ccccc2NC(=O)c2cccc3[nH]ccc23)c(-c2ccnc(NC(C)=O)c2)[nH]1 [Compound 023, N-(2-(5-(2-acetamidopyridin-4-yl)-2-(methylthio)-1H-imidazol-4-yl)phenyl)-1H-indole-4-carboxamide] | > 100 | > 100 | – | –
COc1cccc(C(=O)Nc2ccccc2-c2nc(SC)[nH]c2-c2ccnc(NC(C)=O)c2)c1 [Compound 025, N-(2-(5-(2-acetamidopyridin-4-yl)-2-(methylthio)-1H-imidazol-4-yl)phenyl)-3-methoxybenzamide] | > 100 | > 100 | – | –
CSc1nc(-c2ccccc2NC(=O)c2cc(C)cs2)c(-c2ccnc(NC(C)=O)c2)[nH]1 [Compound 026, N-(2-(5-(2-acetamidopyridin-4-yl)-2-(methylthio)-1H-imidazol-4-yl)phenyl)-4-methyl-thiophene-2-carboxamide] | > 100 | > 100 | – | –
CSc1nc(-c2ccccc2NC(=O)c2ccco2)c(-c2ccnc(NC(C)=O)c2)[nH]1 [Compound 027, N-(2-(5-(2-acetamidopyridin-4-yl)-2-(methylthio)-1H-imidazol-4-yl)phenyl)furan-2-carboxamide] | > 100 | > 100 | – | –
CSc1nc(-c2ccccc2NC(=O)c2ccccc2O)c(-c2ccnc(NC(C)=O)c2)[nH]1 [Compound 032, N-(2-(5-(2-acetamidopyridin-4-yl)-2-(methylthio)-1H-imidazol-4-yl)phenyl)-2-hydroxybenzamide] | > 100 | > 100 | – | –
CSc1nc(-c2ccccc2NC(=O)CCc2ccccc2)c(-c2ccnc(NC(C)=O)c2)[nH]1 [Compound 033, N-(2(5-(2-acetamidopyridin-4-yl)-2-(methylthio)-1H-Imidazol-4-yl)phenyl)-3-phenylpropanamide] | > 100 | > 100 | – | –
CSc1nc(-c2cccc(NC(=O)CCc3ccccc3)c2)c(-c2ccnc(NC(C)=O)c2)[nH]1 [Compound 037, N-(3-(5-(2-acetamidopyridin-4-yl)-2-(methylthio)-1H-imidazol-4-yl)phenyl)-3-phenylpropanamide] | 7.86 | 1.88 | – | –
CSc1nc(-c2ccc(F)c(NC(=O)Cc3c(F)cccc3F)c2)c(-c2ccnc(NC(C)=O)c2)[nH]1 [Compound 052, N-(5-(5-(2-acetamidopyridin-4-yl)-2-(methylthio)-1H-Imidazol-4-yl)-2-fluorophenyl)-2-(2,6-difluorophenyl)acetamide] | 1.89 | 0.969 | – | –
CSc1nc(-c2cccc(NC(=O)Cc3c(F)cccc3F)c2)c(-c2ccnc(NC(C)=O)c2)[nH]1 [Compound 053, N-(3-(5-(2-acetamidopyridin-4-yl)-2-(methylthio)-1H-Imidazol-4-yl)phenyl)-2-(2,6-difluorophenyl)acetamide] | 0.799 | 1.3 | – | –
CSc1nc(-c2cccc3c2CCC3NC(=O)c2c(F)cccc2F)c(-c2ccnc(NC(C)=O)c2)[nH]1 (centres unmarked) [Compound 055, N-(4-(5-(2-acetamidopyridin-4-yl)-2-(methylthio)-1H-imidazol-4-yl)-2,3-dihydro-1H-inden-1-yl)-2,6-difluorobenzamide] | > 100 | > 100 | – | –
CSc1nc(-c2cccc3c2CCC3NC(=O)c2cccc3[nH]ccc23)c(-c2ccnc(NC(C)=O)c2)[nH]1 (centres unmarked) [Compound 056, N-(4(5-(2-acetamidopyridin-4-yl)-2-(methylthio)-1H-imidazol-4-yl)-2,3-dihydro-1H-inden-1-yl)-1H-indole-4-carboxamide] | > 100 | > 100 | – | –
CSc1nc(-c2cccc3c2CCC3NC(=O)c2cc(F)cc(F)c2)c(-c2ccnc(NC(C)=O)c2)[nH]1 (centres unmarked) [Compound 057, N-(4-(5-(2-acetamidopyridin-4-yl)-2-(methylthio)-1H-imidazol-4-yl)-2,3-dihydro-1H-inden-1-yl)-3,5-difluorobenzamide] | > 100 | > 100 | – | –
CSc1nc(-c2cccc(NC(=O)c3c(F)ccc(O)c3CN3Cc4ccccc4C3=O)c2)c[nH]1 [Compound 058, 6-fluoro-3-hydroxy-N-(3-(2-(methylthio)-1H-imidazol-4-yl)phenyl)-2-((1-oxoisoindolin-2-yl)methyl)benzamide] | > 100 | > 100 | > 100 | > 100
CSc1nc(-c2ccnc(NC(C)=O)c2)c(-c2cccc(NC(=O)c3c(F)ccc(O)c3CN3Cc4ccccc4C3=O)c2)n1C [Compound 059, N-(3-(4-(2-acetamidopyridin-4-yl)-1-methyl-2-(methylthio)-1H-imidazol-5-yl)phenyl)-6-fluoro-3-hydroxy-2-((1-oxoisoindolin-2-yl)methyl)benzamide] | > 100 | 3.07 | > 100 | > 100
CSc1nc(-c2cccc(NC(=O)c3cc(O)ccc3F)c2)c[nH]1 [Compound 060] | > 100 | – | > 100 | > 100
